From US5753671A, “Imidazopyridine derivatives as dual histamine (H1) and platelet activating factor (PAF) antagonists” (British Biotech Pharmaceuticals Limited, priority 1994, dated 1998)

Key:
[1] = system: PAF Induced Bronchoconstriction; assay: PAF Induced Bronchoconstriction in the Anaesthetised Guinea Pig; type: in vivo, guinea pig (male Dunkin-Hartley); conditions: 10 mgkg^-1, p.o., PAF 100 ngkg^-1 i.v. bolus one hour after oral dosing
Description: PAF Induced Bronchoconstriction in the Anaesthetised Guinea Pig
(§1) Following oral administration of test compound or vehicle, male Dunkin-Hartley guinea pigs (350-400 g) were anaesthetised by intraperitoneal injection of 60 mgkg^-1 sodium pentobarbitone (Sagatal, May & Baker UK). Through a midline incision of the neck, the trachea was cannulated and connected to a small animal respirator (Harvard, UK). Animals were artificially ventilated at a rate of 30 breaths per minute with a tidal volume of 8-10 ml to give a resting tracheal inflation pressure of 15mmHg as measured by a physiological pressure transducer (type P23XL, Spectramed USA) connected to a side arm of the respiratory circuit.
(§2) A jugular vein was cannulated for the administration of a bolus dose of propranolol and for the later administration of bolus PAF. A carotid artery cannulated for the measurement of arterial blood pressure via a physiological pressure transducer (type P23XL, Spectramed USA). Blood pressure and tracheal inflation pressure were recorded on a thermal array chart recorder (type TA4000, Gould Electronics UK).
Propranolol (1 mgkg^-1 i.v. & 3 mgkg^-1 s.c. Sigma Chemical Co. UK) was administered 10 minutes before PAF in order to prevent the bronchodilatory activity of catecholamines which may be released in response to PAF administration. PAF (100 ngkg^-1 i.v. bolus) was administered at the one hour time point following oral administration of the test compound or vehicle.
Changes in tracheal inflation pressure and blood pressure of drug treated animals were compared with changes from vehicle treated animals and percentage inhibition determined. One dose of test compound was investigated per animal.

[2] = system: Histamine Induced Bronchoconstriction; assay: Histamine Induced Bronchoconstriction in the Anaesthetised Guinea Pig; type: in vivo, guinea pig (male Dunkin-Hartley); conditions: Cavia porcellus, 1 h, p.o., histamine infusion 10 μgkg^-1 min^-1 started one hour after oral dosing
Description: Histamine Induced Bronchoconstriction in the Anaesthetised Guinea Pig
as §1, with “vehicle by oral gavage,” for “vehicle,”, “15 mmHg” for “15mmHg”
as §2, with “of” for “of a bolus dose of”, “infusion” for “later administration”, “histamine.” for “bolus PAF.”, “artery was” for “artery”
Following a suitable equilibration period, propranolol (1 mgkg^-1 i.v. & 3 mgkg ^-1 s.c. Sigma Chemical Co. UK) was administered to inhibit any resulting catecholamine release following histamine administration.
Histamine infusion (10 μgkg^-1 min^-1 at a rate of 10 mlhr^-1 using a perfusion pump type Perfuser securer FT, B. Braun Germany) was started at the one hour time point following oral administration of the test compound or vehicle. Changes in tracheal inflation pressure and blood pressure of drug treated animals were compared with changes from vehicle treated animals and ED50 values determined. One dose of test compound was investigated per animal.

[3] = system: PAF-Induced Platelet Aggregation; assay: Inhibition of PAF-Induced Platelet Aggregation; type: cell-based, rabbit (male New Zealand White); conditions: Oryctolagus cuniculus; rabbit platelet-rich plasma, PAF 100 ng.ml^-1 (50 μl aliquot), 37° C.
Protocol: Inhibition of PAF-Induced Platelet Aggregation
Male New Zealand White rabbits (3.0-3.5 kg) were anaesthetised by intravenous administration of sodium pentobarbitone, […], via a marginal ear vein. The trachea was exposed and connected to a respiratory pump (Havard UK) to provide artificial ventilation. A carotid artery was exposed and cannulated and the animal was exsanguinated. Whole blood was collected in a syringe containing tri-sodium citrate (3.8% w/v) to a ratio of 1 part citrate:9 parts blood.
Collected blood was centrifuged at 180×g for 15 minutes at room temperature (21° C.) to prepare platelet-rich plasma (PRP). The remaining blood was then centrifuged at 1800×g for 10 minutes at room temperature to obtain platelet poor plasma (PPP).
Platelet count of the PRP was measured using a Technicon H1 blood cell differential analyser (Bayer Diagnostics UK) and adjusted with PPP to obtain a final platelet count of 500,000 platelets per μl of plasma, this being the normal physiological platelet count for rabbits. Corrected PRP was left to equilibrate at room temperature for 30 minutes before use.
Aggregation studies were carried out using 4-channel aggregometer (PAP-4C, BioData USA) as follows: 400 μl aliquots of PRP were placed in siliconised cuvettes and incubated to 37° C. for 1 to 2 minutes in the heating block of the aggregometer. Baseline (100% aggregation) was set up using PPP (500 μl in a siliconised cuvette). The PRP was placed into a measuring well of the aggregometer, and a stir bar was added. The sample was stirred at 1000 rpm. The machine was activated to set the 0% aggregation level. Test compound or vehicle (50 μl) was added to the PRP, where any effects on the baseline was noted. PAF (100 ng.ml^-1 as 50 μl aliqout) was added to the PRP 3 minutes after test compound or vehicle. Aggregation was measured for a further 4 minutes after PAF addition and the maximum aggregation over the 4 minutes was recorded.
The investigation of different concentrations of test compound was performed in triplicate. Data were expressed as […] of the sample and test compound data were compared to vehicle data to obtain % inhibition of the PAF-induced aggregation from which IC50 values could be determined.
PAF was made up in sterile saline (NaCl 0.9% w/v) containing BSA (0.25% w/v) from an initial stock solution (10 mg.ml^-1 in EtOH). Test compounds were made up as 1×10^-3 M stock solutions in sterile saline containing molar equivalents of 1N HCI (v/v) or in DMSO.

[4] = target: T1, Histamine-1 Receptors on Hela-S3 Cells (Homo sapiens, UniProt P35367); assay: Inhibition of [^3 H]-Pyrilamine Binding to Histamine-1 Receptors on Hela-S3 Cells; conditions: 0.5 h, 1 μM test compound, 37° C., 30 minutes, read-out: % Specific Binding
T1 construct: histamine-1 receptors on Hela-S3 cells (American Type Culture Collection); endogenous in cells; host or cells: HeLa S3 cells (American Type Culture Collection), intact cell suspension
Protocol: Inhibition of [^3 H]-Pyrilamine Binding to Histamine-1 Receptors on Hela-S3 Cells
The inhibition of [^3 H]-pyrilamine binding to histamine-1 receptors on Hela-S3 cells (American Type Culture Collection) was determined by isotopic labelling and filtration techniques. A suspension of the cells in buffer (25 ml, 0.5% Bovine Serum Albumin, 0.1% sodium azide, phosphate buffered saline (PBS)) was centrifuged at 1000 rpm for 5 minutes in a JOUAN CR 422 centrifuge, collected, resuspended in buffer (25 ml) and spun again. The cells were counted using a haemocytometer and resuspended in buffer to provide a final concentration of 4.5×10^6 cells ml^-1. A portion of the Hela S3 cell suspension (1 ml) was added to each assay tube containing 25 μl of vehicle (50% DMSO/buffer) or 25 μl of solution containing test compound (dissolved in DMSO and diluted with sufficient PBS to give a final test concentration of 1 μM) and 25 μl 0f [^3 H]-pyrilamine (supplied by Amersham International and diluted with PBS to 3 nM). The tubes were mixed and incubated at 37° C. for 30 minutes. The tubes were then spun at 4° C. at 2000 rpm for 2 minutes. The supematant was removed and the cells resuspended in buffer (repeated x2). The cells were suspended in 300 μl of a 2:1 solution of 1M sodium hydroxide and 1% sodium dodecyl sulphate. The tubes were left overnight before the contents were tranferred to a scintillation vial, treated with 10 ml, OPTIPHASE MP scintillation fluid (OPTIPHASE MP is a trade mark) and the radioactivity counted in a scintillation counter. Non-displcable binding (NDB) was determined using Astemizole (5×10^-5 M) in place of test compounds. Defining the counts for total binding from the vehicle control sample as "TB" and the counts for total binding with antagonist as "TBA" the percentage specific binding (%SB) can be determined from the following equation. [formula] Results

T1 sequence (P35367 whole entry): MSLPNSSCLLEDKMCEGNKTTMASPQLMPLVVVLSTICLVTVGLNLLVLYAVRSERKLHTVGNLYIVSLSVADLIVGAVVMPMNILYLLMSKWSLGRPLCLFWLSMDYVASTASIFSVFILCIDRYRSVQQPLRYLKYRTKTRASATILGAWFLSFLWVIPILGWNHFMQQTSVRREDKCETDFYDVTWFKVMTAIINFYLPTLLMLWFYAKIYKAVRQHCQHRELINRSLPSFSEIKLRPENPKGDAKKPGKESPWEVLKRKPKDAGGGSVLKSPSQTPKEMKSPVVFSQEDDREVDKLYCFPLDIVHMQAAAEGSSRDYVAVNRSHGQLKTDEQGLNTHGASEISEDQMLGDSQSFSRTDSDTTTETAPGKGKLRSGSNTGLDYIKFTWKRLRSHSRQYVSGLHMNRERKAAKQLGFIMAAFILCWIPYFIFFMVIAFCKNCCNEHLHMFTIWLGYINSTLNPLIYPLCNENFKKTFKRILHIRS

Compound | % Inhibition [1] | ED50 [2] | IC50 [3] | activity at 1 µM [4]
Cc1ccc(/C(=C\CN2CCCC2)c2cccc(/C=C/C(=O)OC[C@H](CC(C)C)N(C)S(=O)(=O)c3ccc(Cn4c(C)nc5cnccc54)cc3)n2)cc1 [Example 8, (E)-3-(6-[Pyrrolidino-1-{4-tolyl}prop-1E-enyl]-2-pyridyl)acrylic acid, N-methyl-N-4-(1H-2-methylimidazo[4,5-c]pyridinylmethyl)-phenylsulphonyl-L-leucyl ester] | 46% | 0.16 mg/kg |  | 
Cc1nc2cnccc2n1Cc1ccc(S(=O)(=O)N(C)[C@@H](CC(C)C)C(=O)N2CCC(=C3c4ccc(Cl)cc4CCc4cccnc43)CC2)cc1 [Example 6, 4-(8-Chloro-5,6-dihydro-11H-benzo[5,6]cyclohepta[1.2-b]-pyridin-11-ylidene)-1-(N-methyl-N-4-{1H-2-methylimidazo[4,5-c]pyridinylmethyl}-phenylsulphonyl-L-leucyl)-piperidine amide] | 40% | 6.5 mg/kg | 252 nM | 79%
CCOC[C@H](CC(C)C)N(C/C=C/c1cccc(/C(=C/CN2CCCC2)c2ccc(C)cc2)n1)S(=O)(=O)c1ccc(Cn2c(C)nc3cnccc32)cc1 [Example 25, N-(S)-(1-Ethoxymethyl-3-methylbutyl)-N-{(E)-3-(6-[3-pyrrolidino-1-{4-tolyl}-prop-1E-enyl]-pyridin-2-yl)-prop-2-en-1-yl}-4-(1H-2-methylimidazo[4,5-c]pyridin-1-ylmethyl)-phenylsulphonamide] | 50% | 0.5 mg/kg | 420 nM | 55%
CCOC[C@H](CC(C)C)N(CCCN(C)CCC(c1ccc(Cl)cc1)c1ccccn1)S(=O)(=O)c1ccc(Cn2c(C)nc3cnccc32)cc1 (stereo partly drawn) [Example 23, N-(3-{[3-(R,S)-(4-Chlorophenyl)-3-pyridin-2-yl-propyl]-methylamino}propyl)-N-(S)-(1-ethoxymethyl-3-methylbutyl)-4-(1H-2-methylimidazo[4,5-c]pyridin-1-ylmethyl)-phenylsulphonamide] |  |  | 300 nM | 33%
Cc1nc2cnccc2n1Cc1ccc(S(=O)(=O)N(C)[C@@H](CC(C)C)C(=O)OC(CCCN2CCC(C(O)(c3ccccc3)c3ccccc3)CC2)c2ccc(C(C)(C)C)cc2)cc1 (stereo partly drawn) [Example 2, N-Methyl-N-4-(1H-2-methylimidazo[4,5-c]pyridinylmethyl)-phenylsulphonyl-L-leucine-2-(4-[1,1-dimethylethyl]phenyl)-4-(hydroxydiphenylmethyl)-1-piperidinebutyl ester] |  |  | 2100 nM | 57%
Cc1nc2cnccc2n1Cc1ccc(S(=O)(=O)N(C)[C@@H](CC(C)C)C(=O)OCCCN2CCN(C(c3ccccc3)c3ccccc3)CC2)cc1 [Example 4, N-Methyl-N-4-(1H-2-methylimidazo[4,5-c]pyridinylmethyl)-phenylsulphonyl-L-leucine-3-(4-benzhydryl-piperazin-1-yl)-propyl ester] |  |  | 190 nM | 34%
Cc1ccc(/C(=C\CN2CCCC2)c2cccc(/C=C/COC(=O)[C@H](CC(C)C)N(C)S(=O)(=O)c3ccc(Cn4c(C)nc5cnccc54)cc3)n2)cc1 [Example 17, 4-Methyl-2-{methyl-[4-(2-methyl-imidazo[4,5-c]pyridin-1-ylmethyl)-phenylsulphonyl]-amino}-pentanoic acid-(E)-3-(6-[3-pyrrolidino-1-{4-tolyl}-prop-1E-enyl]-pyridin-2-yl)-prop-2-en-1-yl ester] |  |  | 115 nM | 47%
